The text below walks through data of US12419839B2, “Methods and compositions for targeted delivery of protein fragments” (Signablok, Inc., priority 2009, dated 2025).

The subject of data set [1] is A549 xenograft. Put plainly: A549 xenograft mouse model of NSCLC. Type of data set: in vivo. Conditions: compared to the vehicle-treated group. From the text: FIG. 16 presents exemplary data showing that in drug-containing synthetic (recombinant) HDL (SLP, LPC), apolipoprotein can be replaced by synthetic apolipoprotein fragments without compromising the drug antitumor activity in an animal model. Bars, SEM. For statistical analysis, each treatment was compared with the vehicle control using Student's t test. **, P 0.001 to 0.01. Abbreviations: apo, apolipoprotein; HDL, high density lipoproteins; HDL (A-Iox), HDL with oxidized human apo A-I; HDL (PE22ox+PA22ox), HDL with a 1:1 mixture of synthetic peptides PE22ox and PA22ox that correspond to apo A-I helixes 4 and 6, respectively (SEE FIG. 12); dHDL and sHDL, discoidal and spherical HDL, respectively; LPC, lipoprotein/lipopeptide complexes; NSCLC, non-small cell lung cancer; PTX, paclitaxel; SLP, synthetic lipoprotein/lipopeptide particles; TREM-1, triggering receptor expressed on myeloid cells-1.
See, FIGS. 15 and 16. Here, A549 cells were injected subcutaneously into nude mice and randomized into treatment groups (n=10) once tumors reached an average of 200 mm^3. The treatment groups were: i) Vehicle (HDL containing no GF9); ii) paclitaxel (PTX) as a positive control; iii) GF9-dHDL (A-Iox); iv) GF9-sHDL (A-Iox); v) GF9-dHDL(PE22ox+PA22ox); and vi) GF9-sHDL(PE22ox+PA22ox) where each group received intraperitoneal injections twice a week. […]

In data set [2] the test system is GM-CSF, IFNγ, IL-1β, IL-2, IL-6, IL-17, M-CSF and TNFα. Put plainly: serum cytokines in mice with CIA. The note with it: serum on day 38; MG11 and MG11-2G 25 mg/kg, sHDL-bound MG11 2.5 mg/kg; vs vehicle. In kind it is in vivo.
In data set [3] the test system is mice with CIA. The note with it: sHDL-bound MG11 2.5 mg/kg.

Where no end group is shown, it is not given here.

As to `CC(=O)O[C@H]1C(=O)[C@@]2(C)[C@H]([C@H](OC(=O)c3ccccc3)[C@]3(O)C[C@H](OC(=O)[C@H](O)[C@@H](NC(=O)c4ccccc4)c4ccccc4)C(C)=C1C3(C)C)[C@]1(OC(C)=O)CO[C@@H]1C[C@@H]2O` [PTX, paclitaxel], the “post necropsy excised tumors weights” value in data set [1] is “significantly lower”.
Consider MWGTPTLGYFG [MG11-2G], for which, in data set [2], the serum cytokine release entry is “no effect”. Also, the “clinical severity of CIA” value in data set [3] (i.p. daily for 14 days from day 24, MG11 and MG11-2G 25 mg/kg, vs vehicle) was “no effect”.
For MWKTPTLKYFG [free MG11, MWKTPTLKYFG], in data set [3] (i.p. daily for 14 days, MG11 25 mg/kg), the body weight entry was “without affecting body weight”.
